Measurements from patent US20150025012A1, “METHODS AND COMPOSITIONS FOR IDENTIFICATION, ASSESSMENT AND TREATMENT OF CANCERS ASSOCIATED WITH HEDGEHOG SIGNALING” (Infinity Pharmaceuticals, Inc., priority 2010, published 2015).
Entries after “also recorded” stand apart in the source; their conditions may differ.

Tests used:
[1] = system: hGli-1 mRNA expression; assay: Gli-1 mRNA expression after SHh stimulation in tumor cell lines (qRT-PCR); type: cell-based, human; settings: SW872 liposarcoma cell lines; 500 nM IPI-926
Procedure: Several tumor cell lines were tested for Hh pathway responsiveness and for the presence or absence of cilia or vimentin immunofluorescence (IF). Hh pathway responsiveness was evaluated by detecting increases in hGli-1 mRNA expression in response to Sonic Hedgehog stimulation) in a control sample (C), sample treated with Sonic Hedgehog (SHh), and sample treated with SHh and 500 nM of the hedgehog inhibitor IPI-926 (926). Procedures for RNA extraction and RT-PCR detection were performed by standard methods. Briefly, total RNA was extracted from all tumors using a standard RNEASY® Mini Kit (Qiagen). Next, the RNA was converted to cDNA and 50 ng cDNA was used in each reaction/sample for qRT-PCR analysis of the expression of human Gli1. Samples were tested in duplicate. Cilia and Vimentin IF was performed using standard immunofluorescent methods. Cilia were detected on cells using immunofluorescence (IF) with antibodies specific for acetylated-tubulin obtained from Sigma Aldrich. Cells were co-stained with antibodies to the centriole-specific protein pericentrin.
Hh pathway modulation measured after growing cells in low serum and treating with SHh ligand in the presence or absence of IPI-926. Cell lines were cultured under the following conditions. […]

[2] = system: Gli1 mRNA; assay: Gli1 mRNA expression in tumor stroma (RT-PCR); type: in vivo, murine; settings: animals receiving IPI-926 (40 mg/kg) compared to vehicle
Text: In each of these cases, the action of IPI-926 coincides with downregulation of mRNA for Gli1, an important molecule in the Hedgehog signaling pathway, in the tumor stroma of experimental animals receiving IPI-926 (FIG. 12A). The downregulation of Gli1 mRNA can be used as a functional readout for inhibition of Hedgehog signaling. Moreover, in these models, it appears to be the cancer cells that express the ligand of the Hedgehog signaling pathway (FIG. 12B). Thus, without being bound by theory, Applicants believe that the tumor cells express Hedgehog ligand which signals to a tumor associated stromal cell.
RNA for analysis was isolated from cell pellets or tumor tissue using the Ambion RNA 4-PCR isolation kit according to the manufacturer's guidance. Reverse transcription-PCR was performed for human GAPDH, Gli l and SHh and murine GAPDH, Gli1, PECAM and RGS5 using an ABI-7300 system with ABI primer/probes. Relative quantification of the expression data was obtained using the ΔΔCT method as described by Applied Biosystems.

[3] = system: subcutaneous L3.6pl tumor model; assay: Tumor perfusion by contrast enhanced high frequency ultrasound; type: in vivo, mice; settings: IPI-926 orally 40 mg/kg for seven days, compared to vehicle
Procedure: The L3.6pl tumor cell line was injected subcutaneously and treatment with IPI-926 was initiated. IPI-926 or vehicle was administered orally at 40 mg/kg for seven consecutive days. On the eighth day, animals were subjected to ultrasound image capture and analysis using the Vevo 2100 high frequency ultrasound instrument (Visualsonics) in conjunction with contrast enhancement (microbubbles) during the imaging procedure. Contrast agent was administered by iv administration during the imaging procedure and quantified by measuring echogenic signal derived from the contrast agent over time.

[4] = system: Bx-PC3 tumors; assay: Growth of Bx-PC3 tumors in mice; type: in vivo; settings: single agents and combination
Text: Bevacizumab, a monoclonal antibody, exerts its activity by neutralizing VEGF, a factor important of the proliferation and survival of endothelial cells. […] In the same study, the relative effect of these agents was explored by measuring the mRNA expression of PECAM-1, a marker of endothelial cells and RGS5, a marker of pericytes. […] The role of the vasculature and its supporting pericyte population in the mechanism of action of IPI-926 continues to be explored.
For in vivo studies, tumors were grown in male NCR-nu/nu mice by subcutaneous injection of 5×10^6 cells. Tumor growth was monitored using calipers. When tumors reached an approximate size of 200 mm^3, tumor bearing animals were randomized into treatment arms and administered agents or vehicles as described.

[5] = system: Basal Cell Carcinoma (BCC) lesion; assay: BCC lesion in a patient before and after treatment; type: in vivo, human; settings: six months after treatment
[6] = system: tumor stroma; assay: Uptake of imaging marker Gd-DTPA (DCE-MRI) and fluorescent drug and protein in tumors; type: in vivo; settings: IPI-926 treated tumors
[7] = system: human cell lines derived from patients with cancer; settings: pancreatic cancer, medulloblastoma, lung cancer, multiple myeloma, leukemias, lymphomas; cited from earlier work
[8] = system: preclinical in vivo tumor models; settings: medulloblastoma, SCLC, NSCLC, skin, head and neck, ovarian cancer; cited from earlier work

**Q.** With `CC1=C2C[C@H]3[C@@H](CC[C@@H]4C[C@H](NS(C)(=O)=O)CC[C@@]43C)[C@@H]2CC[C@@]2(C1)O[C@@H]1C[C@H](C)CN[C@H]1[C@H]2C` [IPI-926] as the compound, how does the “SHh-upregulated Gli-1 mRNA expression” value [1] read?
**A.** The value was “blocked”.

**Q.** And the “Gli1 mRNA expression in tumor stroma” value [2]?
**A.** The value was “inhibition; also recorded: suppression; also recorded: downregulation”.

**Q.** And the “time to reach peak contrast” value [3]?
**A.** The value was “decrease; also recorded: change”.

**Q.** What about the “activity on the growth of Bx-PC3 tumors” value [4] of the same compound?
**A.** Its value is “approximately the same single agent activity”.

**Q.** What about the “size and morphology of BCC lesion” value [5] of the same compound?
**A.** Its value is “dramatic reduction”.

**Q.** What about the “uptake of imaging marker Gd-DTPA and fluorescent drug and protein (doxorubicin, lectin)” value [6] of the same compound?
**A.** The value was “increased uptake”.

**Q.** What about the “in vitro growth of human cell lines” value [7] of the same compound?
**A.** The value was “inhibit”.

**Q.** What about the “tumor growth in preclinical in vivo models” value [8] of the same compound?
**A.** Its value is “tumor growth inhibition”.
